Our source for the IC50 values is patent publication US20090018134A1, “Compounds - 945” (AstraZeneca AB, priority 2007, published 2009).

For this experiment, the target named is T1, mTOR (Homo sapiens, UniProt P42345).
T1 construct: FLAG; made in house
T1 sequence (P42345 1362-2549): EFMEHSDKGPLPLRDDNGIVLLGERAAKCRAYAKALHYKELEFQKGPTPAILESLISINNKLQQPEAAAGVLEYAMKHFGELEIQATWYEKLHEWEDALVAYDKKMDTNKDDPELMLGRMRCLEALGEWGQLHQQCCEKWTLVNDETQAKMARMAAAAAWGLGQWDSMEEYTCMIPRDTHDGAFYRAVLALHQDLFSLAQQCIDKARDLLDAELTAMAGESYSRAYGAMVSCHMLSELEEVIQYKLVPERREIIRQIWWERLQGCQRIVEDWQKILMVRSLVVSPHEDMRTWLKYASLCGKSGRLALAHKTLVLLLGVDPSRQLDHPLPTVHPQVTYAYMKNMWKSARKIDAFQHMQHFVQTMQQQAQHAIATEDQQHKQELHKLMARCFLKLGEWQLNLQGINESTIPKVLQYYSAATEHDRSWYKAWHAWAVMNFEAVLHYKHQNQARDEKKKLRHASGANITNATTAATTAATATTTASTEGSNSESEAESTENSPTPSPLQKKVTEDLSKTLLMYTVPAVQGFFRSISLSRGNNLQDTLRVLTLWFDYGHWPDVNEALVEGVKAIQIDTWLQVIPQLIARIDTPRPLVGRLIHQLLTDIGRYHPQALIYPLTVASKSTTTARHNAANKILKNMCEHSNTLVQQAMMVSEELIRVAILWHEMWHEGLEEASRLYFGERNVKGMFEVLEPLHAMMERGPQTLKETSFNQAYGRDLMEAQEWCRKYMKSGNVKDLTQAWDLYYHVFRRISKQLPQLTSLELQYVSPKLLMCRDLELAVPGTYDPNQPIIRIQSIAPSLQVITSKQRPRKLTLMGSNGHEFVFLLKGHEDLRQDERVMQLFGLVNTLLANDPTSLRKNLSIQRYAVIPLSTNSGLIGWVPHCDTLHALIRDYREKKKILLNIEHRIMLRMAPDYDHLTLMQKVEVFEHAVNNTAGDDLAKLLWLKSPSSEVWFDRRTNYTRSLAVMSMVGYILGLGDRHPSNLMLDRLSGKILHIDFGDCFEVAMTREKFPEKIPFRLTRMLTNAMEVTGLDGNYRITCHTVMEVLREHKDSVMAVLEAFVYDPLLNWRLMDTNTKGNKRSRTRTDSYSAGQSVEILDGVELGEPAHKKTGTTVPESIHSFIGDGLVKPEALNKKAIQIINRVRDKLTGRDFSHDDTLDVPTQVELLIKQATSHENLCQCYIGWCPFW
Put plainly: In Vitro mTOR Kinase Assay (Echo), Test (a)(ii). The experiment is classed as biochemical. The following applies: table of enzyme assay Test (a)(ii); read-out: Test (a)(ii) IC50. A digest of the protocol:
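FLAG-tagged truncated mTOR (residues 1362-2549), expressed in HEK293 and purified via the FLAG tag, phosphorylated a biotinylated peptide over 2 hours at room temperature. EDTA stopped the reaction. Phospho-T389 was detected overnight by AlphaScreen using the p70 S6K T389 antibody with Protein A/streptavidin beads; IC50 reported.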
With `C[C@H]1COCCN1c1cc(C2(S(=O)(=O)c3ccccn3)CCCC2)nc(-c2ccc(NC(=O)NC3CC3)cc2)n1` [Example 36ab, 3-cyclopropyl-1-[4-[4-[(3S)-3-methylmorpholin-4-yl]-6-(1-pyridin-2-ylsulfonylcyclopentyl)pyrimidin-2-yl]phenyl]urea], the IC50 was determined as 11 nM.
The result for `C[C@H]1COCCN1c1cc(C2(S(=O)(=O)c3ccccn3)CCCC2)nc(-c2ccc(NC(=O)NCCO)cc2)n1` [Example 36ac, 3-(2-hydroxyethyl)-1-[4-[4-[(3S)-3-methylmorpholin-4-yl]-6-(1-pyridin-2-ylsulfonylcyclopentyl)pyrimidin-2-yl]phenyl]urea] reads 4.41 nM.
Take `C[C@H]1COCCN1c1cc(C2(S(=O)(=O)c3ccccn3)CCCC2)nc(-c2ccc(NC(=O)NCCC#N)cc2)n1` [Example 36ad, 3-(2-cyanoethyl)-1-[4-[4-[(3S)-3-methylmorpholin-4-yl]-6-(1-pyridin-2-ylsulfonylcyclopentyl)pyrimidin-2-yl]phenyl]urea]: the IC50 was 32.3 nM.
The result for `C[C@H]1COCCN1c1cc(C2(S(=O)(=O)c3ccccn3)CCCC2)nc(-c2ccc(NC(=O)NCCCO)cc2)n1` [Example 36ae, 3-(3-hydroxypropyl)-1-[4-[4-[(3S)-3-methylmorpholin-4-yl]-6-(1-pyridin-2-ylsulfonylcyclopentyl)pyrimidin-2-yl]phenyl]urea] reads 15.1 nM; that for `C[C@H]1COCCN1c1cc(C2(S(=O)(=O)c3ccccn3)CCC2)nc(-c2ccc(NC(=O)NC3CC3)cc2)n1` [Example 36af, 3-cyclopropyl-1-[4-[4-[(3S)-3-methylmorpholin-4-yl]-6-(1-pyridin-2-ylsulfonylcyclobutyl)pyrimidin-2-yl]phenyl]urea], 2.75 nM.
For `CNC(=O)Nc1ccc(-c2nc(N3CCOC[C@@H]3C)cc(C3(S(=O)(=O)c4ccccn4)CCC3)n2)cc1` [Example 36ag, 3-methyl-1-[4-[4-[(3S)-3-methylmorpholin-4-yl]-6-(1-pyridin-2-ylsulfonylcyclobutyl)pyrimidin-2-yl]phenyl]urea], the IC50 was found to be 1.3 nM.
The result for `C[C@H]1COCCN1c1cc(C2(S(=O)(=O)c3ccccn3)CCC2)nc(-c2ccc(NC(=O)NCCO)cc2)n1` [Example 36ah, 3-(2-hydroxyethyl)-1-[4-[4-[(3S)-3-methylmorpholin-4-yl]-6-(1-pyridin-2-ylsulfonylcyclobutyl)pyrimidin-2-yl]phenyl]urea] reads 2.47 nM.
In the case of `C[C@H]1COCCN1c1cc(C2(S(=O)(=O)c3ccccn3)CCC2)nc(-c2ccc(NC(=O)NCCC#N)cc2)n1` [Example 36ai, 3-(2-cyanoethyl)-1-[4-[4-[(3S)-3-methylmorpholin-4-yl]-6-(1-pyridin-2-ylsulfonylcyclobutyl)pyrimidin-2-yl)phenyl]urea], the IC50 stood at 5.61 nM.
As for `C[C@H]1COCCN1c1cc(C2(S(=O)(=O)c3ccccn3)CCC2)nc(-c2ccc(NC(=O)NCc3ncc[nH]3)cc2)n1` [Example 36ak, 3-(1H-imidazol-2-ylmethyl)-1-[4-[4-[(3S)-3-methylmorpholin-4-yl]-6-(1-pyridin-2-ylsulfonylcyclobutyl)pyrimidin-2-yl]phenyl]urea], the IC50 came to 2.45 nM.
Regarding `O=C(Nc1ccc(-c2nc(N3CCOCC3)cc(C3(S(=O)(=O)c4ccc(F)cc4)CC3)n2)cc1)Nc1ncns1` [Example 36an, 1-[4-[4-[1-(4-fluorophenyl)sulfonylcyclopropyl]-6-morpholin-4-ylpyrimidin-2-yl]phenyl]-3-(1,2,4-thiadiazol-5-yl)urea], the IC50 was determined as 10.4 nM.
The result for `CCNC(=O)Nc1ccc(-c2nc(N3CCOCC3)cc(C3(S(=O)(=O)c4ccc(F)cc4)CC3)n2)cc1` [Example 36ao, 1-ethyl-3-[4-[4-[1-(4-fluorophenyl)sulfonylcyclopropyl]-6-morpholin-4-ylpyrimidin-2-yl]phenyl]urea] reads 14 nM; that for `CNC(=O)Nc1ccc(-c2nc(N3CCOCC3)cc(C3(S(=O)(=O)c4ccc(F)cc4)CC3)n2)cc1` [Example 36ap, 3-[4-[4-[1-(4-fluorophenyl)sulfonylcyclopropyl]-6-morpholin-4-ylpyrimidin-2-yl]phenyl]-1-methylurea], 15.6 nM.
Take `Cn1cc(NC(=O)Nc2ccc(-c3nc(N4CCOCC4)cc(C4(S(=O)(=O)c5ccc(F)cc5)CC4)n3)cc2)cn1` [Example 36aq, 3-[4-[4-[1-(4-fluorophenyl)sulfonylcyclopropyl]-6-morpholin-4-ylpyrimidin-2-yl]phenyl]-1-(1-methylpyrazol-4-yl)urea]: the IC50 amounted to 15.7 nM.
As to `O=C(NCCO)Nc1ccc(-c2nc(N3CCOCC3)cc(C3(S(=O)(=O)c4ccncc4)CC3)n2)cc1` [Example 36ar, 3-(2-hydroxyethyl)-1-[4-[4-morpholin-4-yl-6-(1-pyridin-4-ylsulfonylcyclopropyl)pyrimidin-2-yl]phenyl]urea], the IC50 was found to be 9.45 nM.
The result for `Cn1cc(NC(=O)Nc2ccc(-c3nc(N4CCOCC4)cc(C4(S(=O)(=O)c5ccncc5)CC4)n3)cc2)cn1` [Example 36as, 1-(1-methylpyrazol-4-yl)-3-[4-[4-morpholin-4-yl-6-(1-pyridin-4-ylsulfonylcyclopropyl)pyrimidin-2-yl]phenyl]urea] reads 9.11 nM.
Regarding `CNC(=O)Nc1ccc(-c2nc(N3CCOCC3)cc(C3(S(=O)(=O)c4ccncc4)CC3)n2)cc1` [Example 36at, 1-methyl-3-[4-[4-morpholin-4-yl-6-(1-pyridin-4-ylsulfonylcyclopropyl)pyrimidin-2-yl]phenyl]urea], the IC50 turned out to be 6.39 nM.
For the compound `CCNC(=O)Nc1ccc(-c2nc(N3CCOCC3)cc(C3(S(=O)(=O)c4ccncc4)CC3)n2)cc1` [Example 36au, 1-ethyl-3-[4-[4-morpholin-4-yl-6-(1-pyridin-4-ylsulfonylcyclopropyl)pyrimidin-2-yl]phenyl]urea], the IC50 was 12.1 nM.
In the case of `O=C(Nc1ccc(-c2nc(N3CCOCC3)cc(C3(S(=O)(=O)c4ccncc4)CC3)n2)cc1)NC1CC1` [Example 36av, 3-cyclopropyl-1-[4-[4-morpholin-4-yl-6-(1-pyridin-4-ylsulfonylcyclopropyl)pyrimidin-2-yl]phenyl]urea], the IC50 is 9.95 nM.
The result for `N#CCCNC(=O)Nc1ccc(-c2nc(N3CCOCC3)cc(C3(S(=O)(=O)c4ccncc4)CC3)n2)cc1` [Example 36aw, 3-(2-cyanoethyl)-1-[4-[4-morpholin-4-yl-6-(1-pyridin-4-ylsulfonylcyclopropyl)pyrimidin-2-yl]phenyl]urea] reads 16.4 nM; that for `O=C(NCCCO)Nc1ccc(-c2nc(N3CCOCC3)cc(C3(S(=O)(=O)c4ccncc4)CC3)n2)cc1` [Example 36ax, 3-(3-hydroxypropyl)-1-[4-[4-morpholin-4-yl-6-(1-pyridin-4-ylsulfonylcyclopropyl)pyrimidin-2-yl]phenyl]urea], 21.1 nM.
With `C[C@H]1COCCN1c1cc(C2(S(C)(=O)=O)CC2)nc(-c2ccc(NC(=O)Nc3nccs3)cc2)n1` [Example 36ay, 1-[4-[4-[(3S)-3-methylmorpholin-4-yl]-6-(1-methylsulfonylcyclopropyl)pyri-midin-2-yl]phenyl]-3-(1,3-thiazol-2-yl)urea], the IC50 is 1.17 nM.
Turning to `C[C@H]1COCCN1c1cc(C2(S(=O)(=O)CCCO)CC2)nc(-c2ccc(NC(=O)Nc3ncns3)cc2)n1` [Example 36b, 1-[4-[4-[1-(3-hydroxypropylsulfonyl)cyclopro-pyl]-6-[(3S)-3-methylmorpholin-4-yl]pyrimidin-2-yl]phenyl]-3-(1,2,4-thiadiazol-5-yl)urea], the IC50 came out at 1.79 nM.
The result for `C[C@H]1COCCN1c1cc(C2(S(=O)(=O)c3ccccc3)CC2)nc(-c2ccc(NC(=O)NC3CCC3)cc2)n1` [Example 36bd, 1-[4-[4-[1-(benzenesulfonyl)cyclopropyl]-6-[(3S)-3-methylmorpholin-4-yl]pyrimidin-2-yl]phenyl]-3-cyclobutylurea] reads 2.58 nM; that for `C[C@H]1COCCN1c1cc(C2(S(=O)(=O)c3ccccc3)CC2)nc(-c2ccc(NC(=O)NCC(O)C(F)(F)F)cc2)n1` (stereo partly drawn) [Example 36be, 1-[4-[4-[1-(benzenesulfonyl)cyclopropyl]-6-[(3S)-3-methylmorpholin-4-yl]pyrimidin-2-yl]phenyl]-3-(3,3,3-trifluoro-2-hydroxypropyl)urea], 3.76 nM; that for `CC(C)NC(=O)Nc1ccc(-c2nc(N3CCOC[C@@H]3C)cc(C3(S(=O)(=O)c4ccccc4)CC3)n2)cc1` [Example 36bf, 1-[4-[4-[1-(benzenesulfonyl)cyclopropyl]-6-[(3S)-3-methylmorpholin-4-yl]pyrimidin-2-yl]phenyl]-3-propan-2-ylurea], 4.57 nM.
The result for `CCCNC(=O)Nc1ccc(-c2nc(N3CCOC[C@@H]3C)cc(C3(S(=O)(=O)c4ccccc4)CC3)n2)cc1` [Example 36bi, 3-[4-[4-[1-(benzenesulfonyl)cyclopropyl]-6-[(3S)-3-methylmorpholin-4-yl]pyrimidin-2-yl]phenyl]-1-propylurea] reads 2.31 nM.
The result for `C[C@H]1COCCN1c1cc(C2(S(=O)(=O)c3ccccc3)CC2)nc(-c2ccc(NC(=O)NC(C)(C)CO)cc2)n1` [Example 36bk, 1-[4-[4-[1-(benzenesulfonyl)cyclopropyl]-6-[(3S)-3-methylmorpholin-4-yl]pyrimidin-2-yl]phenyl]-3-(1-hydroxy-2-methylpropan-2-yl)urea] reads 4.33 nM; that for `C[C@H]1COCCN1c1cc(C2(S(=O)(=O)c3ccccc3)CC2)nc(-c2ccc(NC(=O)NCCC#N)cc2)n1` [Example 36bm, 1-[4-[4-[1-(benzenesulfonyl)cyclopropyl]-6-[(3S)-3-methylmorpholin-4-yl]pyrimidin-2-yl]phenyl]-3-(2-cyanoethyl)urea], 1.93 nM; that for `C[C@H]1COCCN1c1cc(C2(S(=O)(=O)c3ccccc3)CC2)nc(-c2ccc(NC(=O)NCc3ncc[nH]3)cc2)n1` [Example 36bn, 1-[4-[4-[1-(benzenesulfonyl)cyclopropyl]-6-[(3S)-3-methylmorpholin-4-yl]pyrimidin-2-yl]phenyl]-3-(1H-imidazol-2-ylmethyl)urea], 6.37 nM.
